These results are taken from US20040109845A1, “Method for inhibiting articular cartilage matrix calcification” (priority 2001, published 2004).

The structures appear in SMILES notation. “Also recorded” adds a separate entry of the source.

The subject of assay [1] is NO release by meniscal cells. Put plainly: NO release by cultured meniscal cells (Greiss reaction). Particulars: 72 hrs, IL-1 or TNFα 10 ng/ml, NMMA 10 μM or A20 transfection. In kind it is cell-based, human. As to the method:
NO release by 3×10^5 meniscal cells, which were plated and stimulated with TNFα (10 ng/ml) or IL-1 (10 ng/ml), with or without 10 μM NMMA (FIG. 8A), for 72 hrs was studied. Conditioned media were collected and 50 μl aliquots analyzed for NO release using the Greiss Reaction, with results expressed as μmoles released per μg DNA. […] After 72 hrs of incubation with TNFα or IL-1, the conditioned media were collected from the cultured, transfected cells and analyzed in triplicate for NO release, as above. Data pooled from 4 normal donors studied in triplicate for FIGS. 8A and 8B. *p<0.05.
PPi was determined by differential adsorption on activated charcoal of UDP-D-[6-^3H] glucose (Amersham, Chicago, Ill.) from the reaction product 6-phospho [6-^3H] gluconate (28). Units of NTPPPH and AP were designated as micromoles of substrate hydrolyzed per hour (per μg DNA in each sample) (28). NO release by cultured meniscal cells was measured using the Greiss reaction (33). Concentrations or specific activities of PPi, NTPPPH, and AP were equalized for cellular DNA concentrations in each well.

The subject of assay [2] is TGase activity (tTGase and Factor XIIIa) in meniscal cells. As to the kind of experiment: TGase activity in cultured knee meniscal cells (BP incorporation into N,N-dimethylcasein). The class given is cell-based, human. Particulars: meniscal cells, 72 hrs, IL-1 or TNFα 10 ng/ml; NMMA 10 μM or A20 transfection. How it is done:
Meniscal cells were maintained in DMEM high glucose and supplemented with 10% FCS, 1% L-glutamine, 100 units/ml Penicillin and 50 μg/ml Streptomycin (Omega Scientific, Tarzana, Calif.) and cultured at 37° C. with 5% CO2. In monolayer cell culture studies involving stimulation by TGFE[…] or IL-1, the cells were placed in DMEM high glucose containing 1% FCS, 1% L-glutamine, 100 units/ml Penicillin and 50 μg/ml Streptomycin. In all other studies, the cells were cultured in complete medium (as described above). Only primary or first passage meniscal cells were studied.
TGase activity was measured by modifications to a previously described method (35). Specifically, we coated 96 well ImmunoModule plates (Nunc, Rochester, N.Y.) with 200 μl of 20 mg/ml N,N-dimethylcasein for 1 hr at 23° C. The N,N-dimethylcasein was removed and nonspecific protein binding was blocked by adding 3% BSA in 100 mM Tris, pH 8.5, 150 mM NaCl, 0.05% Tween-20 (TBST) to each well for an additional 1 hr at 23° C. Then, aliquots of 5 μg of total cellular protein from meniscal or TC28 cells that had been lysed and sonicated (in 5 mM Tris HCl, 0.25 M sucrose, 0.2 mM MgSO4, 2 mM DTT, 0.4 mM PMSF, 0.4% Triton X100, pH 7.5), were added to the plate in triplicate. To measure TGase in extracts of whole menisci, 50 mg dry weight of tissue from the central zone of each medial meniscus was used as the source (after solubilization and sonication) for aliquots of 5 μg of soluble protein. Fifty μl of solution A (100 mM Tris, pH 8.5 and 20 mM CaCl2) was added to all samples for TGase assay, followed by the addition of 50 μl of solution B (100 mM Tris, pH 8.5, 40 mM DTT and freshly added 2 mM 5-(Biotinamido) pentylamine (BP)). The plates were incubated for 1 hr at 37° C. The wells were washed once with TBST containing 1 mM EDTA and then three times with TBST. One hundred μl of a 1:500 dilution of streptavidin-AP in 3% BSA/TBST was added to each well for 1 hr at 23° C. The wells were washed twice with TBST, and 200 μl of solution C (100 mM Tris, pH 9.8, mM NaCl, 5 mM MgCl2, 1 mg/ml of freshly added p-nitrophenylphosphate) was added to each well. Readings at OD410 were taken over 15 minutes. Purified guinea pig liver TGase (Sigma) was used to prepare a standard curve. TGase activity was designated as the amount of BP incorporated into casein (per μg cellular DNA, determined chromogenically following precipitation in perchlorate (28), or, where indicated, per μg protein, determined as previously described (28)).
To directly induce expression of each TGase in meniscal cells, 5×10^5 primary cells were plated in 60 mm dishes and allowed to adhere overnight. We modified (28) the manufacturer's protocol for the Lipofectamine Plus kit (Life Technologies, Grand Island, N.Y.). To optimize the transfection of meniscal cells, we added 2.0 ml of serum-free DMEM/F12 containing 0.00015% digitonin to washed cells and incubated for 3 min at 23° C. Then, media was removed, and cells transfected at 37° C. for 7 hrs, followed by removal of the media and addition of complete DMEM high glucose medium. Transfection of each TGase into TC28 cells was done by the same procedure, with the exception that the digitonin permeabilization step was omitted.

With `CNC(=N)NCCC[C@H](N)C(=O)O` [NMMA, reference compound], the “Effect on IL-1 and TNFα-induced NO release” value in assay [1] is “attenuated IL-1 and TNFα-induced NO release; also recorded: suppresses IL-1 and TNFα-induced NO release”. Also, the “Effect on IL-1 and TNFα-induced TGase activity” value in assay [2] was “blocked the ability of both IL-1 and TNFα to induce TGase activity; also recorded: attenuated LL-1 and TNFα-induced TGase activity”.
